In patent publication US20250235500A1, “NEW POLYPEPTIDE FOR PROMOTING TISSUE REPAIR, AND USE THEREOF” (Jinan University, priority 2021, published 2025):
Bridge positions count the residues as written; N and C are the ends. Peptide text beside a SMILES is read from it.

Assays:
skin of subjects = assay: Skin safety evaluation, closed patch test; format: in vivo, human; settings: TRF7 2 mg/mL, 24 h patch, 20 subjects, observed at 0.5, 6, 12, 24 and 48 h
Method: Subject population: A total of 20 subjects, comprising 10 females and 10 males aged 18-55, were selected. All subjects had healthy skin without any history of skin diseases or allergies, meeting the eligibility criteria for participation.
Test method: Qualified patch testers were selected, and a closed patch test method was adopted. Approximately 0.020-0.025 mL of the polypeptide TRF7 (2 mg/mL) was applied to the patch testers, which were then affixed to the subjects' backs using specialized adhesive tape. […] The results of the skin reactions were recorded according to the grading standards stipulated in the Hygienic Standard for Cosmetics.

[1] = test system: stress-induced gastric ulcer in rats; assay: Protective effect on stress-induced gastric ulcer in rats (restraint water-immersion); format: in vivo, SD rats; settings: sucralfate 1 g/kg intragastric, 7 days; Guth standard; model group 75.1 ± 13.8
Method: Test Method: 20 male SD rats weighing 180-210 g (purchased from Guangdong Medical Experimental Animal Center) were randomly divided into five groups: a blank group, a model group, a sucralfate group (1 g/kg, a positive drug group), a low-dose TRF7 group (12.5 mg/kg), and a high-dose TRF7 group (50.0 mg/kg). The treatment groups were subjected to intragastric administration for 7 consecutive days. 24 h before modeling, the rats were subjected to […] but fed with water. […] The rats were cut open along greater curvatures of the stomach, rinsed with the normal saline, and then unfolded, damage to gastric mucosa was observed, and a gastric ulcer index was calculated. Calculating the ulcer index (UI) according to a Guth standard: punctate hemorrhage was scored as 1 point, linear hemorrhage with a length of <1 mm was scored as 2 points, linear hemorrhage with a length of 1-2 mm was scored as 3 points, linear hemorrhage with a length of 2-4 mm was scored as 4 points, linear hemorrhage with a length of >4 mm was scored as 5 points, and linear hemorrhage with a width of >1 mm was scored double points.

Molecule	skin reactions in closed patch test (skin of subjects)	Ulcer inde [1]
CC(C)C[C@H](NC(=O)[C@@H]1CCCN1C(=O)[C@H](C)NC(=O)[C@H](Cc1ccc(O)cc1)NC(=O)[C@H](CO)NC(=O)CNC(=O)[C@@H]1CSSC[C@H](NC(=O)[C@H](C)N)C(=O)N2CCC[C@H]2C(=O)N[C@@H](CC(N)=O)C(=O)N[C@@H](Cc2ccc(O)cc2)C(=O)N2CCC[C@H]2C(=O)N[C@@H](Cc2ccc(O)cc2)C(=O)N1)C(=O)NCC(=O)N[C@@H](Cc1ccc(O)cc1)C(=O)N[C@@H](Cc1c[nH]cn1)C(=O)N[C@H](C(=O)N[C@@H](CCCNC(=N)N)C(=O)N[C@@H](CCC(=O)O)C(=O)N[C@@H](Cc1ccc(O)cc1)C(=O)N1CCC[C@H]1C(=O)N[C@@H](C)C(=O)NCC(=O)N[C@H](C(=O)N[C@@H](CO)C(=O)N[C@@H](C)C(=O)N[C@@H](C)C(=O)O)C(C)C)C(C)C [TRF7] (H-ACPNYPYCGSYAPLGYHVREYPAGVSAA-OH; disulfide 2-8)	no adverse skin reactions observed	
sucralfate		35.5 ± 8.7
